The test system of series [1] is BCL-2(G4) (DNA, G4) AGGGGCGGGCGCGGGAGGAAGGGGGCGGGAGCGGGGCTG
Kind of series: ESI-MS. To be noted: K+ 100 mM KCl plus potassium phosphate; BPES buffer, pH 7.4; no adduct peak.

The target of series [2] is T1, Aβ1-42 (Homo sapiens, UniProt P05067).
T1 construct: Aβ1-42 was purchased from Gill Biochemicals Ltd (Shanghai, China); purchased Gill Biochemicals Ltd (Shanghai, China)
Put plainly: Thioflavine T fluorescence spectroscopy assay (time course to 96 h). The class given is biochemical. To be noted: 20 μM compound, Aβ1-42 incubated for 96 h. On the procedure: The Aβ1-42 solutions (100 μM) were co-incubated with B14 (20 μM) or Curcumin (20 μM) at 37 °C protected from light for 96 h. 30 μL of Aβ1-42 solution was taken at different time points (0 h, 10 h, 24 h, 48 h, 72 h, 96 h), mixed fully with 400 μL of ThT solution (15 μM), and incubated in the dark for 30 min. The fluorescence signal was recorded by using a Cary Eclipse fluorescence spectrophotometer (Varian, USA) with the following setting: excitation wavelength at 440 nm, emission wavelength at 480 nm, and slit width of 20 nm.
The Aβ1-42 solutions (100 μM) were co-incubated with B14 (20 μM) and Curcumin (20 μM) at 37 °C protected from light for 96 h. 30 μL of Aβ1-42 solutions were taken at different time points (0 h, 10 h, 24 h, 48 h, 72 h, 96 h), mixed fully with 400 μL of ThT solution (15 μM), and incubated in the dark for 30 min. The fluorescence signal was recorded by a Cary Eclipse fluorescence spectrophotometer (Varian, USA) with excitation wavelength at 440 nm, emission wavelength at 480 nm, and slit width of 20 nm.

Series [3] concerns BCL-2 promoter i-motif. Kind of series: TO displacement assay, BCL-2 i-motif. The class given is binding. To be noted: BPES buffer pH 5.5. The protocol: Figure S4. TO displacement and UV titration experiments were performed to examine the effects of B14 and A22 on BCL-2 promoter i-motif. (A-B) TO displacement was performed on BCL-2 promoter i-motif annealed in 1XBPES buffer at pH 5.5 with increasing amount of B14 and A22. (C) The above relative TO displacement ratio were statistically analyzed.
(§1) DNA oligonucleotides were diluted to 1 μM with 1 × PBES buffer at pH 5.5, annealed at 95 °C for 10 min, cooled to room temperature, and stored at 4 °C for future use. TO dye (1 μM) was added to the DNA solution followed with incubation for 1 h. The spectra of 100 μL mixture with addition of different equivalent compounds at 25 °C were recorded based on fluorescence emission (λex = 480 nm).
(§2) TO displacement ratio (%) = (F0 − FC) / (F0 − FB) * 100.
(§3) F0 and FC were the fluorescence intensity of TO at 536 nm with DNA before and after adding compounds, respectively. FB was the fluorescence intensity of TO at 536 nm with buffer only.

For series [4], the system named is HRAS promoter i-motif. Put plainly: TO displacement assay, HRAS i-motif. The class given is binding. The protocol:
as §1, §2, §3

Series [5] has as its system bEnd.3 in vitro BBB model. Kind of series: Measurement of in vitro BBB transport (bEnd.3 transwell). The class given is in vitro ADME. The protocol:
bEnd.3 (10 × 10^4 cells/well) was cultured in the upper chamber of a 12 wells-plate within a transwell system. The transepithelial electrical resistance (TEER) was measured to monitor the tightness of the monolayer, and the monolayer of cells with a minimum of 200 Ω cm^2 was used for further experiments.

Series [6] deals with SH-SY5Y cells. Kind of series: FITC Annexin V/PI cell apoptosis analysis in Aβ1-42 model. The class given is cell-based. To be noted: 25 μM Aβ1-42 induced model. The protocol:
The FITC Annexin V/PI apoptosis analysis was conducted using the FITC Annexin V/PI Apoptosis Detection Kit (Muti sciences, 70-AP101-100). Cells were treated with varying concentrations of B14 in a 6-well plate containing a cell model induced with 25 μM Aβ1-42. After digestion and resuspension in 500 μL binding buffer, samples were incubated with 5 μL of FITC Annexin V for 5 minutes, followed by the addition of 5 μL PI for further incubation at room temperature for 10 minutes. Flow cytometry analysis (Millipore, guava easy Cyte) was used to measure fluorescence intensity, and data analysis was performed using Flow jo V10.

Series [7] relates to GFAP, Iba-1, NF-κB, TNF-α and IL-6 in hippocampus of APP/PS1 mice. Put plainly: Neuroinflammation markers in hippocampus. The class given is in vivo. The protocol: Protein samples (25–40 μg) were separated using 10 % SDS-PAGE and subsequently transferred onto PVDF membranes (0.22 μm, Servicebio, Guangzhou, China) via electro transfer. Following blocking with TBST solution (Servicebio, Guangzhou, China) containing 5 % BSA (Solarbio, Beijing, China) for approximately 60 min at room temperature, the membrane was exposed to various primary antibodies overnight at 4 °C on a rotating shaker. Then, the membranes were incubated with HRP-conjugated secondary antibody (Affinity, Changzhou, China) for 2 h. Protein bands were then detected using an ECL kit. The signal intensity of each target protein was quantified using Image J 1.8.0 software (Bio-Rad Laboratories, California, USA).
Five months old male APP/PS1 mice, weighing 25–33 g, were purchased from Guangdong Medical Laboratory Animal Center and housed in the Laboratory Animal Center of Sun Yat-sen University (Guangzhou, China) for experimentation. All procedures were approved by the Animal Care and Use Committee of Sun Yat-sen University and complied with legal requirements and national guidelines for the care and maintenance of laboratory animals (Approval No. SYSU-IACUC-2024-002032). The mice were housed in a specific pathogen-free environment with a controlled temperature of 22 ± 1 °C and a 12-h dark/light cycle. […]

The record followed here is article PMC11982498 (Redox Biology, 2025).

Values joined by “and” are separate entries in the source; they are usually repeats but may differ in a detail not shown here. Equal entries are not always repeated.

T1 sequence (P05067 672-713 limits assumed): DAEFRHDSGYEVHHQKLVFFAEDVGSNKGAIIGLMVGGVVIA

Turning to `O=C(CCN1CCOCC1)Nc1ccc2c(c1)c(=O)c1cc(NC(=O)CCN3CCOCC3)ccc1n2-c1ccc2occc2c1` [Compound B14], in series [1], the binding result is on record as “no”. Also, the “decrease of ThT fluorescence intensity” value in series [2] is listed as 39.58 ± 2.08%. Also, the “Relative TO displacement ratio” value in series [3] was 65% and 65.7%. Further, in series [4], the TO displacement ratio is listed as 16%. Also, the values for the Permeability in series [5] (6 h) and in series [5] (24 h) were 45.80% and 55.74%, respectively. Besides, the apoptosis ratio result in series [6] is reported as “decreased in a dose-dependent manner”. Besides, the “activation of astrocytes (GFAP) and microglia (Iba-1)” value in series [7] is on record as “reduce the activations of astrocytes”. Also, the “expressions of inflammatory factors” value in series [7] was “decrease the expressions of the inflammatory factors NF-κB, TNF-α and IL-6”.
